Experimental data published in publication PMC2364081, “Antagonists of retinoic acid receptors (RARs) are potent growth inhibitors of prostate carcinoma cells” (British Journal of Cancer, 2001).

Experiments:
[1] = test system: breast carcinoma lines; parameters: method as in Fanjul et al, 1998; conditions: low serum (0.5%); ref Fanjul et al, 1998; cited from earlier work
[2] = test system: LNCaP ITS+ cells; assay: Plate colony formation (clonal proliferation) assay, serum-free (ITS+)-grown LNCaP; assay type: cell-based, human
Description: (§1) Prostate cancer is one of the most common cancers in European and American males and has a high mortality rate (Landis et al, 1998; Rosenthal, 1998). Early disease is managed conservatively in Europe although in selected patients surgery is curative. In advanced disease, androgen ablation can produce symptomatic improvement, but the tumour often re-emerges in an androgen- independent and incurable form. One proposed treatment for androgen-independent prostate carcinoma is differentiation ther- apy, in which agents such as all-trans-retinoic acid (ATRA), 9-cis- retinoic acid and 1, 25-dihydroxyvitamin D3 (D3 ) are used to induce growth arrest, differentiation and sometimes apoptosis of the tumour cells (Liang et al, 1999; de Vos et al, 1997; Skowronski et al, 1994; Hedlund et al, 1997). ATRA and synthetic analogues exert their biological effects by binding to two families of retinoid receptors, […]. These are ligand-dependent transcription factors of the steroid/thyroid hormone nuclear receptor superfamily (Chambon 1994; Boehm et al, 1995). Activated RARs bind to retinoic acid-responsive elements (RAREs) in the promoters of genes and thus regulate gene expression. They also antagonize the activity of the tran- scription factor AP1 and thereby down-regulate the expression of some AP1-activated genes (Nagpal et al, 1995). One approach to unravelling the contributions of RAR sub-types to these actions has been the development of synthetic retinoids with selective activities at individual RARs and RXRs. For example, the diaryl- acetylenic retinoids allow separation of transactivation and AP1 antagonism functions at RAR (Nagpal et al, 1995). Recently, compounds that are selective for particular RAR sub-types have been synthesized: these include both agonists and antagonists (Chandraratna, 1995; Teng et al, 1999; Johnson et al, 1999). The functional selectivity of these compounds may open the way to achieving differentiation or apoptosis of tumour cells with minimal systemic side effects (Chandraratna, 1995). Cell lines that are commonly used in the evaluation of investiga- tional agents for prostate cancer include LNCaP, DU-145 and PC- 3. […] These lines are relatively insensitive to growth inhibition and induction of apoptosis by ATRA and by synthetic agonists. […] Fenretinide (4HPR) induces apoptosis of LNCaP and of PC-3 cells at 1-5 M and 25 µM, respectively (Pienta et al, 1993; Heish and Wu, 1997). Pfahl and colleagues examined the growth inhibitory effects of a panel of receptor-selective retinoids against DU145 and PC-3 cells and achieved complete growth inhibition and induction of apoptosis between 1 M and 10 M (Lu et al, 1999). […] Antagonists of retinoic acid receptors (RARs) are potent growth inhibitors of prostate carcinoma cells LA Hammond1 , CH Van Krinks2 , J Durham2 , SE Tomkins2 , RD Burnett3 , EL Jones1 , RAS Chandraratna3 and G Brown2 Divisions of 1 Cancer Studies and of 2 Immunity and Infection, University of Birmingham Medical School, Edgbaston, Birmingham B15 2TT, UK and 3 Retinoid Research, Allergan Inc., Irvine, California, USA Summary Novel synthetic antagonists of retinoic acid receptors (RARs) have been developed. To avoid interference by serum retinoids when testing these compounds, we established serum-free grown sub-lines (>3 years) of the prostate carcinoma lines LNCaP, PC3 and DU145. […] A component(s) of serum and of LNCaP-conditioned medium diminishes the activity of antagonists: this factor is not the most likely candidates IGF-1 and EGF. In vitro studies of RAR antagonists together with data from RAR-null mice lead to the hypothesis that RAR-regulated gene transcription is necessary for the survival and maintenance of prostate epithelium. […]

[3] = target: T1, RARα (Homo sapiens, UniProt P10276); assay: Binding to baculovirus-expressed RARα; parameters: made in house; conditions: baculovirus-expressed receptor
T1 sequence (P10276 1-462): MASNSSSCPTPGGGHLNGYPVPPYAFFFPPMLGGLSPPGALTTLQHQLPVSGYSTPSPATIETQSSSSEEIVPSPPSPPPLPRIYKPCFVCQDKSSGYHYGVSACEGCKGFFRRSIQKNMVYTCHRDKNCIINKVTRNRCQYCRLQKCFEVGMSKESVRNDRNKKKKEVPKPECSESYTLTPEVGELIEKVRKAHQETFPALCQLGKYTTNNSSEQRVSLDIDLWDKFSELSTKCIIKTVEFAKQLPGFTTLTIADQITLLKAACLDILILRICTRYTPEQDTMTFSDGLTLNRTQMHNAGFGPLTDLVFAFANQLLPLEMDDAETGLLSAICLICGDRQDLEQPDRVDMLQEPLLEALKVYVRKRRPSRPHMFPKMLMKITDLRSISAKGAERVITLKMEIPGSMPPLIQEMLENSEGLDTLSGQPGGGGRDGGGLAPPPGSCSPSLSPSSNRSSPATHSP
Description: as §1

[4] = target: T2, RARβ (Homo sapiens, UniProt P10826); assay: Binding to baculovirus-expressed RARβ; parameters: made in house; conditions: baculovirus-expressed receptor
T2 sequence (P10826 1-455): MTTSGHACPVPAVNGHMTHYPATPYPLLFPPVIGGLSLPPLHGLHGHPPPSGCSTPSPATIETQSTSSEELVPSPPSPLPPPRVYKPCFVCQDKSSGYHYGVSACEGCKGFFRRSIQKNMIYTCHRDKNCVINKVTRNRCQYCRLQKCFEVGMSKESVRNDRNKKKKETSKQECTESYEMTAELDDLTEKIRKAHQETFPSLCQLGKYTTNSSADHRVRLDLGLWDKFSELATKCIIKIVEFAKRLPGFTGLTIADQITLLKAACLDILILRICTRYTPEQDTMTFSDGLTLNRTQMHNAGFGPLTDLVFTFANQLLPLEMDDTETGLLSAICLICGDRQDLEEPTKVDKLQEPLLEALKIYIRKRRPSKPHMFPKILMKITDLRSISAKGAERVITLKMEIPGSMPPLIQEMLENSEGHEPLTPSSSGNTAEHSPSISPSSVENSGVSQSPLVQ
Description: as §1

[5] = target: T3, RARγ (Homo sapiens, UniProt P13631); assay: Binding to baculovirus-expressed RARγ; parameters: made in house; conditions: baculovirus-expressed receptor
T3 sequence (P13631 1-454): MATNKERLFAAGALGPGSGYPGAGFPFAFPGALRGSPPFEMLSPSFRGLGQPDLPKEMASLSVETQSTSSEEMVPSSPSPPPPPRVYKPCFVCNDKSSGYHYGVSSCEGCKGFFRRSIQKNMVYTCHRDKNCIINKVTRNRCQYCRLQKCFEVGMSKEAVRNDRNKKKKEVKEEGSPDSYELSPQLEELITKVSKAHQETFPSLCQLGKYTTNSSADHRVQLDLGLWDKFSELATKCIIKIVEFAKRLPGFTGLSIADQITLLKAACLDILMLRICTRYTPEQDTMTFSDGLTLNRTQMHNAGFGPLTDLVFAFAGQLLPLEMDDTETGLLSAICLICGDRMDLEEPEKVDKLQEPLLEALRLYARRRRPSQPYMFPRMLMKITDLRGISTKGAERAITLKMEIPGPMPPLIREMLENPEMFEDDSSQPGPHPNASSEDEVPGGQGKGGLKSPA
Description: as §1

[6] = target: T1, RARα; assay: Transactivation by RARα in doubly transfected CV-1 cells (MTV-TREp-LUC reporter); assay type: cell-based; parameters: expressed in transfected cells; host or cells: CV-1 cells
Description: (§2) Prostate cancer is one of the most common cancers in European and American males and has a high mortality rate (Landis et al, 1998; Rosenthal, 1998). Early disease is managed conservatively in Europe although in selected patients surgery is curative. In advanced disease, androgen ablation can produce symptomatic improvement, but the tumour often re-emerges in an androgen- independent and incurable form. One proposed treatment for androgen-independent prostate carcinoma is differentiation ther- apy, in which agents such as all-trans-retinoic acid (ATRA), 9-cis- retinoic acid and 1, 25-dihydroxyvitamin D3 (D3 ) are used to induce growth arrest, differentiation and sometimes apoptosis of the tumour cells (Liang et al, 1999; de Vos et al, 1997; Skowronski et al, 1994; Hedlund et al, 1997). ATRA and synthetic analogues exert their biological effects by binding to two families of retinoid receptors, the RARs (RAR, RAR and RAR) and the RXRs (RXR, RXR and RXR). These are ligand-dependent transcription factors of the steroid/thyroid hormone nuclear receptor superfamily (Chambon 1994; Boehm et al, 1995). Activated RARs bind to retinoic acid-responsive elements (RAREs) in the promoters of genes and thus regulate gene expression. They also antagonize the activity of the tran- scription factor AP1 and thereby down-regulate the expression of some AP1-activated genes (Nagpal et al, 1995). One approach to unravelling the contributions of RAR sub-types to these actions has been the development of synthetic retinoids with selective activities at individual RARs and RXRs. For example, the diaryl- acetylenic retinoids allow separation of transactivation and AP1 antagonism functions at RAR (Nagpal et al, 1995). Recently, compounds that are selective for particular RAR sub-types have been synthesized: these include both agonists and antagonists (Chandraratna, 1995; Teng et al, 1999; Johnson et al, 1999). The functional selectivity of these compounds may open the way to achieving differentiation or apoptosis of tumour cells with minimal systemic side effects (Chandraratna, 1995). […]

[7] = target: T2, RARβ; assay: Transactivation by RARβ in doubly transfected CV-1 cells (MTV-TREp-LUC reporter); assay type: cell-based; parameters: expressed in transfected cells; host or cells: CV-1 cells; key to EC50 transactivation RARβ: NA: inactive; WA: weak partial agonist
Description: as §2

[8] = test system: LNCaP, PC3 and DU145 cells; assay: Plate colony formation assay, stated over the three serum-free grown lines; assay type: cell-based, human
Description: as §1

[9] = test system: FBS-grown DU145 cells; assay: Plate colony formation assay, FBS-grown DU145; assay type: cell-based, human; parameters: dose or concentration left out as unconfirmed; conditions: ATRA
Description: as §2, with “1995).” for “1995). One approach to unravelling the contributions of RAR sub-types to these actions has been the development of synthetic retinoids with selective activities at individual RARs and RXRs. For example, the diaryl- acetylenic retinoids allow separation of transactivation and AP1 antagonism functions at RAR (Nagpal et al, 1995). Recently, compounds that are selective for particular RAR sub-types have been synthesized: these include both agonists and antagonists (Chandraratna, 1995; Teng et al, 1999; Johnson et al, 1999). The functional selectivity of these compounds may open the way to achieving differentiation or apoptosis of tumour cells with minimal systemic side effects (Chandraratna, 1995).”

[10] = test system: LNCaP cells; conditions: ref Gao et al, 1999; cited from earlier work
[11] = test system: PC-3 and DU-145 cells; parameters: method as in Lu et al, 1997 and 1999; dose or concentration left out as unconfirmed; conditions: ref Lu et al, 1997 and 1999; cited from earlier work
[12] = test system: PC3 ITS+ cells; assay: Plate colony formation assay, serum-free (ITS+)-grown PC3; assay type: cell-based, human; conditions: 14 days
Description: as §2

[13] = test system: DU145 ITS+ cells; assay: Plate colony formation assay, serum-free (ITS+)-grown DU145; assay type: cell-based, human; conditions: 14 days
Description: as §2

[14] = test system: FBS-grown LNCaP, DU145 and PC3 cells; assay: Plate colony formation assay, stated over the three FBS-grown lines; assay type: cell-based, human; conditions: 100 nM
Description: as §2, with “1995).” for “1995). One approach to unravelling the contributions of RAR sub-types to these actions has been the development of synthetic retinoids with selective activities at individual RARs and RXRs. For example, the diaryl- acetylenic retinoids allow separation of transactivation and AP1 antagonism functions at RAR (Nagpal et al, 1995). Recently, compounds that are selective for particular RAR sub-types have been synthesized: these include both agonists and antagonists (Chandraratna, 1995; Teng et al, 1999; Johnson et al, 1999). The functional selectivity of these compounds may open the way to achieving differentiation or apoptosis of tumour cells with minimal systemic side effects (Chandraratna, 1995).”

[15] = test system: HL60 cells; assay: ATRA-induced differentiation of HL60 cells to neutrophils (nitroblue tetrazolium reduction); assay type: cell-based, human; conditions: antagonist at 100 nM added with 100 nM ATRA
Description: as §2, with “1995).” for “1995). One approach to unravelling the contributions of RAR sub-types to these actions has been the development of synthetic retinoids with selective activities at individual RARs and RXRs. For example, the diaryl- acetylenic retinoids allow separation of transactivation and AP1 antagonism functions at RAR (Nagpal et al, 1995). Recently, compounds that are selective for particular RAR sub-types have been synthesized: these include both agonists and antagonists (Chandraratna, 1995; Teng et al, 1999; Johnson et al, 1999). The functional selectivity of these compounds may open the way to achieving differentiation or apoptosis of tumour cells with minimal systemic side effects (Chandraratna, 1995).”

[16] = test system: HL60 cells; assay: Clonal growth of single serum-free grown HL60 cells in microtitre wells; assay type: cell-based, human; conditions: 100 nM
Description: as §1

COCCOCOc1ccc(C(=O)/C=C/c2ccc(C(=O)O)cc2)cc1C12CC3CC(CC(C3)C1)C2 [MX781]
concentration abolishing cell proliferation [1]: > 1 µM

C/C(=C\c1ccc(C(=O)O)cc1)c1ccc2c(c1)C(C)(C)CCC2(C)C [TTNPB, reference compound]
inhibition of colony formation ([2]; TTNPB alone at 10 -6 M): > 90%
inhibition of colony formation ([2]; TTNPB alone at 10 -7 M): ~ 10%

CC1(C)CCC(C)(C)c2cc(C(=O)Nc3cc(F)c(C(=O)O)c(F)c3)c(O)cc21 [AGN194078]
Kd [3]: 4 nM
Kd [4]: > 5000 nM
Kd [5]: > 5 µM
EC50 [6]: 140 nM
EC50 transactivation RARβ [7]: WA

CC1=C(/C=C/C(C)=C/C=C/C(C)=C/C(=O)O)C(C)(C)CCC1 [ATRA, all-trans retinoic acid]
effect on colony formation ([8]; 100 nM, three cell lines, ITS+ and FBS cells): little effect
reduction in colony formation [9]: < 1%
concentration inducing apoptosis [10]: 2 µM
growth inhibition and apoptosis [11]: neither inhibits the growth nor induces apoptosis

Cc1ccc(C2=CC(C)(C)Oc3c(Br)cc(C(=O)Nc4ccc(C(=O)O)c(F)c4)cc32)cc1 [AGN194301]
IC50 ([2]; LNCaP, serum-free (ITS+), 14 days): 203 nM
IC50 [12]: 235 nM
IC50 [13]: 201 nM
inhibition of colony formation ([8]; 100 nM, three lines in ITS+ medium): 42-74%
IC50 ([8]; stated over all three serum-free grown lines, read-out: concentration inhibiting colony formation by 50% (IC50)): ~200 nM
inhibition of colony formation [14]: 0-19%
percentage of mature cells [15]: 1%
viability of the single cells [16]: > 95%
effect on clonal growth of HL60 cells ([16]; 4 days): did not adversely affect
number of viable cells at day 4 ([16]; control 18): 22
cloning efficiency ([16]; same as untreated): 90-93%
Kd [3]: 3 nM
Kd [4]: 320 nM
Kd [5]: 7.25 µM
